Reference: US3932625A, “Method and compound for parasite control” (Purdue Research Foundation, priority 1974, dated 1976)

Experiments:
[1] = Single-dose acute toxicity (lethal dose, 50% kill of test animals); settings: rat, in vivo, rats, route not stated, read-out: LD50 (lethal dose as measured by a 50% kill of test animals)
Excerpt: Thus, 5-Thio-D-glucose is suitable for administering to animals and/or humans.

[2] = system: transport of real D-glucose across a cell membrane; settings: stated as known characteristic; cited from earlier work

Q: For OC[C@H]1SC(O)[C@H](O)[C@@H](O)[C@@H]1O (stereo partly drawn) [5-Thio-D-glucose], which LD50 [1] is on record?
A: 14000 mg/kg

Q: What about the “inhibition of transport of real D-glucose across a cell membrane” value [2] of the same compound?
A: inhibiting the transport of real D-glucose across a cell membrane
